From ChEMBL document CHEMBL1136657, “Novel ether derivatives of mannopeptimycin glycopeptide antibiotic” (2003)
Values after ≈ are worked out from the molar mass of the structure shown. Blank lines part the entries; values can stand above or below the molecule they belong to.

Legend:
Bacillus cereus = test: Minimum inhibitory concentration against Bacillus cereus (GC 4561) was determined; assay type: functional
Enterococcus faecium [1] = test: Minimum inhibitory concentration against Enterococcus faecium (GC 4557) was determined; assay type: functional
Streptococcus pneumoniae [2] = test: Minimum inhibitory concentration against Streptococcus pneumoniae (GC 1894) was determined; assay type: functional
Escherichia coli [3] = test: Minimum inhibitory concentration against Escherichia coli (GC 4560) was determined; assay type: functional
[4] = tested on: Staphylococcus haemolyticus; test: Minimum inhibitory concentration against Staphylococcus haemolyticus (GC 4546) was determined
[5] = Minimum inhibitory concentration against SCN (GC 4548) was determined; assay type: functional
[6] = Minimum inhibitory concentration against SCN (GC 4547) was determined; assay type: functional
Streptococcus pneumoniae [7] = test: Minimum inhibitory concentration against Streptococcus pneumoniae (GC 4565) was determined; assay type: functional
Enterococcus avium = test: Minimum inhibitory concentration against Enterococcus avium (GC 4558) was determined; assay type: functional
Staphylococcus aureus [8] = test: Minimum inhibitory concentration against Staphylococcus aureus (GC 3051) was determined; assay type: functional
Staphylococcus aureus [9] = test: Minimum inhibitory concentration against Staphylococcus aureus (GC 1131) was determined; assay type: functional
Enterococcus faecalis [10] = test: Minimum inhibitory concentration against Enterococcus faecalis (GC 2242) was determined; assay type: functional
Enterococcus faecalis [11] = test: Minimum inhibitory concentration against Enterococcus faecalis (GC 6189) was determined; assay type: functional
Staphylococcus aureus [12] = test: Minimum inhibitory concentration against Staphylococcus aureus (GC 4545) was determined; assay type: functional
Enterococcus faecalis [13] = test: Minimum inhibitory concentration against Enterococcus faecalis (GC 4552) was determined; assay type: functional
Staphylococcus aureus [14] = test: Minimum inhibitory concentration against Staphylococcus aureus (GC 4542) was determined; assay type: functional
[15] = Minimum inhibitory concentration against SCN (GC 4551) was determined; assay type: functional
[16] = Minimum inhibitory concentration against SCN (GC 4549) was determined; assay type: functional
Enterococcus faecalis [17] = test: Minimum inhibitory concentration against Enterococcus faecalis (GC 4555) was determined; assay type: functional
Enterococcus faecalis [18] = test: Minimum inhibitory concentration against Enterococcus faecalis (GC 3059) was determined; assay type: functional
Morganella morganii = test: Minimum inhibitory concentration against Morganella morganii (GC 4381) was determined; assay type: functional
Escherichia coli [19] = test: Minimum inhibitory concentration against Escherichia coli (GC 4564) was determined; assay type: functional
Staphylococcus aureus [20] = test: Minimum inhibitory concentration against Staphylococcus aureus (GC 4541 was determined; assay type: functional
Staphylococcus aureus [21] = test: Minimum inhibitory concentration against Staphylococcus aureus (GC 4543) was determined; assay type: functional
Enterococcus faecalis [22] = test: Minimum inhibitory concentration against Enterococcus faecalis (GC 2691) was determined; assay type: functional
Escherichia coli [23] = test: Minimum inhibitory concentration against Escherichia coli (GC 2203) was determined; assay type: functional
[24] = Minimum inhibitory concentration against SCN (GC 6257) was determined; assay type: functional
Staphylococcus aureus [25] = test: Minimum inhibitory concentration against Staphylococcus aureus (GC 4544) was determined; assay type: functional
Staphylococcus aureus [26] = test: Minimum inhibitory concentration against Staphylococcus aureus (GC 3066) was determined; assay type: functional
Candida albicans = test: Minimum inhibitory concentration against Candida albicans GC 3066 was determined; assay type: functional
Enterococcus faecalis [27] = test: Minimum inhibitory concentration against Enterococcus faecalis (GC 4554) was determined; assay type: functional
Streptococcus agalactiae = test: Minimum inhibitory concentration against Streptococcus agalactiae (GC4564) was determined; assay type: functional
Enterococcus faecium [28] = test: Minimum inhibitory concentration against Enterococcus faecium (GC 2243) was determined; assay type: functional
Pseudomonas aeruginosa = test: Minimum inhibitory concentration against Pseudomonas aeruginosa (GC 2214) control was determined; assay type: functional
Enterococcus faecium [29] = test: Minimum inhibitory concentration against Enterococcus faecium (GC 4556) was determined; assay type: functional
Streptococcus pneumoniae [30] = test: Minimum inhibitory concentration against Streptococcus pneumoniae (GC 6242) was determined; assay type: functional
Micrococcus luteus = test: Minimum inhibitory concentration against Sarcina lutea (GC 4562) was determined; assay type: functional
Enterococcus faecalis [31] = test: Minimum inhibitory concentration against Enterococcus faecalis (GC 4553) was determined; assay type: functional
Streptococcus pyogenes = test: Minimum inhibitory concentration against Streptococcus pyogenes (GC 4563) was determined; assay type: functional
Staphylococcus aureus [32] = test: Minimum inhibitory concentration against Staphylococcus aureus (GC 2216) was determined; assay type: functional
Mus musculus = test: In vivo activity against Staphylococcus aureus smith was determined after iv administration in mice; assay type: functional; details: Mus musculus, iv; read-out: ED50
Staphylococcus aureus [33] = test: Minimum inhibitory concentration against Staphylococcus aureus smith; assay type: functional

MIC (Bacillus cereus): 2 µg/mL (≈ 1.38 µM)
MIC (Enterococcus faecium [1]): 0.25 µg/mL (≈ 0.172 µM)
MIC (Streptococcus pneumoniae [2]): 0.12 µg/mL (≈ 0.0827 µM)
MIC (Escherichia coli [3]): 1 µg/mL (≈ 0.689 µM)
MIC [5]: 1 µg/mL (≈ 0.689 µM)
MIC [6]: 2 µg/mL (≈ 1.38 µM)
MIC (Streptococcus pneumoniae [7]): 0.25 µg/mL (≈ 0.172 µM)
MIC (Enterococcus avium): 2 µg/mL (≈ 1.38 µM)
MIC (Staphylococcus aureus [8]): 2 µg/mL (≈ 1.38 µM)
MIC (Staphylococcus aureus [9]): 4 µg/mL (≈ 2.76 µM)
MIC (Enterococcus faecalis [10]): 8 µg/mL (≈ 5.51 µM)
MIC (Enterococcus faecalis [11]): 4 µg/mL (≈ 2.76 µM)
MIC (Staphylococcus aureus [12]): 2 µg/mL (≈ 1.38 µM)
MIC (Enterococcus faecalis [13]): 8 µg/mL (≈ 5.51 µM)
MIC (Staphylococcus aureus [14]): 1 µg/mL (≈ 0.689 µM)
MIC [15]: 2 µg/mL (≈ 1.38 µM)
MIC [16]: 1 µg/mL (≈ 0.689 µM)
MIC (Enterococcus faecalis [17]): 8 µg/mL (≈ 5.51 µM)
MIC (Enterococcus faecalis [18]): 8 µg/mL (≈ 5.51 µM)
MIC (Morganella morganii): > 128 µg/mL
MIC (Escherichia coli [19]): 128 µg/mL (≈ 88.2 µM)
MIC (Staphylococcus aureus [20]): 2 µg/mL (≈ 1.38 µM)
MIC (Staphylococcus aureus [21]): 2 µg/mL (≈ 1.38 µM)
MIC (Enterococcus faecalis [22]): 8 µg/mL (≈ 5.51 µM)
MIC (Escherichia coli [23]): 128 µg/mL (≈ 88.2 µM)
MIC [24]: 1 µg/mL (≈ 0.689 µM)
MIC (Staphylococcus aureus [25]): 4 µg/mL (≈ 2.76 µM)
MIC (Staphylococcus aureus [26]): 2 µg/mL (≈ 1.38 µM)
MIC (Candida albicans): > 64 µg/mL
MIC (Enterococcus faecalis [27]): 8 µg/mL (≈ 5.51 µM)
MIC (Streptococcus agalactiae): 0.5 µg/mL (≈ 0.344 µM)
MIC (Enterococcus faecium [28]): 8 µg/mL (≈ 5.51 µM)
MIC (Pseudomonas aeruginosa): > 128 µg/mL
MIC (Enterococcus faecium [29]): 8 µg/mL (≈ 5.51 µM)
MIC (Streptococcus pneumoniae [30]): 0.25 µg/mL (≈ 0.172 µM)
MIC (Micrococcus luteus): 0.25 µg/mL (≈ 0.172 µM)
MIC (Enterococcus faecalis [31]): 8 µg/mL (≈ 5.51 µM)
MIC (Streptococcus pyogenes): 0.5 µg/mL (≈ 0.344 µM)
MIC (Staphylococcus aureus [32]): 2 µg/mL (≈ 1.38 µM)
SMILES: COc1ccc2cc(CO[C@H]3[C@H](O)[C@@H](CO)OC(O[C@H]4[C@H](O)[C@H](O)[C@@H](Oc5ccc(C[C@H]6NC(=O)[C@H]([C@@H](C)c7ccccc7)NC(=O)CNC(=O)[C@H](CO)NC(=O)[C@@H]([C@@H](O)[C@@H]7CN=C(N)N7[C@H]7O[C@H](O)[C@@H](O)[C@H](O)[C@@H]7O)NC(=O)[C@H]([C@@H](O)[C@@H]7CN=C(N)N7)NC6=O)cc5)O[C@@H]4CO)[C@H]3O)ccc2c1 (some centres not stated)
MIC [4]: 1 µg/mL (≈ 0.689 µM)

MIC (Bacillus cereus): 1 µg/mL (≈ 0.689 µM)
MIC (Enterococcus faecium [1]): 1 µg/mL (≈ 0.689 µM)
MIC (Streptococcus pneumoniae [2]): ≤ 0.06 µg/mL
MIC (Escherichia coli [3]): 0.25 µg/mL (≈ 0.172 µM)
MIC [5]: 0.12 µg/mL (≈ 0.0827 µM)
MIC [6]: 0.5 µg/mL (≈ 0.344 µM)
MIC (Streptococcus pneumoniae [7]): ≤ 0.06 µg/mL
MIC (Enterococcus avium): 2 µg/mL (≈ 1.38 µM)
MIC (Staphylococcus aureus [8]): 1 µg/mL (≈ 0.689 µM)
MIC (Staphylococcus aureus [9]): 0.5 µg/mL (≈ 0.344 µM)
MIC (Enterococcus faecalis [10]): 2 µg/mL (≈ 1.38 µM)
MIC (Enterococcus faecalis [11]): 1 µg/mL (≈ 0.689 µM)
MIC (Staphylococcus aureus [12]): 0.5 µg/mL (≈ 0.344 µM)
MIC (Enterococcus faecalis [13]): 2 µg/mL (≈ 1.38 µM)
MIC (Staphylococcus aureus [14]): 0.25 µg/mL (≈ 0.172 µM)
MIC [15]: 0.25 µg/mL (≈ 0.172 µM)
MIC [16]: 0.12 µg/mL (≈ 0.0827 µM)
MIC (Enterococcus faecalis [17]): 2 µg/mL (≈ 1.38 µM)
MIC (Enterococcus faecalis [18]): 2 µg/mL (≈ 1.38 µM)
MIC (Morganella morganii): 64 µg/mL (≈ 44.1 µM)
MIC (Escherichia coli [19]): 32 µg/mL (≈ 22 µM)
MIC (Staphylococcus aureus [20]): 0.5 µg/mL (≈ 0.344 µM)
MIC (Staphylococcus aureus [21]): 0.5 µg/mL (≈ 0.344 µM)
MIC (Enterococcus faecalis [22]): 2 µg/mL (≈ 1.38 µM)
MIC (Escherichia coli [23]): 32 µg/mL (≈ 22 µM)
MIC [24]: 0.25 µg/mL (≈ 0.172 µM)
MIC (Staphylococcus aureus [25]): 1 µg/mL (≈ 0.689 µM)
MIC (Staphylococcus aureus [26]): 1 µg/mL (≈ 0.689 µM)
MIC (Candida albicans): > 64 µg/mL
MIC (Enterococcus faecalis [27]): 2 µg/mL (≈ 1.38 µM)
MIC (Streptococcus agalactiae): ≤ 0.06 µg/mL
MIC (Enterococcus faecium [28]): 2 µg/mL (≈ 1.38 µM)
MIC (Pseudomonas aeruginosa): > 64 µg/mL
MIC (Enterococcus faecium [29]): 2 µg/mL (≈ 1.38 µM)
MIC (Streptococcus pneumoniae [30]): ≤ 0.06 µg/mL
MIC (Micrococcus luteus): ≤ 0.06 µg/mL
MIC (Enterococcus faecalis [31]): 2 µg/mL (≈ 1.38 µM)
MIC (Streptococcus pyogenes): ≤ 0.06 µg/mL
MIC (Staphylococcus aureus [33]): 0.5 µg/mL (≈ 0.344 µM)
MIC (Staphylococcus aureus [32]): 1 µg/mL (≈ 0.689 µM)
SMILES: COc1ccc2cc(CO[C@H]3[C@H](O)[C@H](O)[C@@H](O[C@H]4[C@H](O)[C@H](O)[C@@H](Oc5ccc(C[C@H]6NC(=O)[C@H]([C@@H](C)c7ccccc7)NC(=O)CNC(=O)[C@H](CO)NC(=O)[C@@H]([C@@H](O)[C@@H]7CN=C(N)N7[C@H]7O[C@H](O)[C@@H](O)[C@H](O)[C@@H]7O)NC(=O)[C@H]([C@@H](O)[C@@H]7CN=C(N)N7)NC6=O)cc5)O[C@@H]4CO)O[C@@H]3CO)ccc2c1
ED50 (Mus musculus): 0.06 mg/kg
MIC [4]: 0.25 µg/mL (≈ 0.172 µM)
